Measurements published in patent US4678775A, “Method of controlling pests” (priority 1984, dated 1987).
Like-named read-outs stand apart in the source and are kept apart here.

What was measured:
[1] = system: octopamine-sensitive adenylate cyclase; test: Activation of octopamine-sensitive adenylate cyclase, firefly light organ broken cell preparation; format: biochemical, Photinus pyralis
[2] = system: tobacco hornworms (Manducca sexta); test: In vivo leaf test (antifeeding) on tomato leaves with tobacco hornworm larvae; conditions: for effect of addition of IBMX on antifeeding / pesticidal activity: with PDE inhibitor IBMX
[3] = Table 1, ratio greater than 1 = better than (±)-p-octopamine
[4] = Table 4, agonist 10^-1 gm/100 ml, No PDE Inhibitor
[5] = Table 4, agonist 10^-2 gm/100 ml, No PDE Inhibitor
[6] = Table 1, maximal activation as % of that by (±)-p-octopamine, N.A. = No Activity
[7] = Table 2, clonidines, N.A. = no activity
[8] = Table 5, agonist 1 gm/100 ml, IBMX 0.1 g/100 ml
[9] = Table 5, agonist 1 gm/100 ml, No PDE Inhibitor
[10] = Table 5, agonist 10^-1 gm/100 ml, IBMX 0.1 g/100 ml
[11] = Table 5, agonist 10^-1 gm/100 ml, No PDE Inhibitor
[12] = Table 5, agonist 10^-2 gm/100 ml, IBMX 0.1 g/100 ml
[13] = Table 5, agonist 10^-2 gm/100 ml, No PDE Inhibitor

## CN(C)CC(O)c1ccc(O)cc1 (racemic) [(±)-N,Ndimethyloctopamine, reference compound]
[1]; [3]
  Ka^oct/Ka^(1) ratio (column head is drawing 15): 0.9

## CNCC(O)c1ccc(O)cc1 (racemic) [(±)-Nmethyloctopamine]
[1]
  Ka^oct/Ka^(1) ratio (column head is drawing 15): 1.8
[2]; Table 4, agonist 1 gm/100 ml, IBMX 0.1 g/100 ml
  % Leaf Remaining: 90%
[2]; Table 4, agonist 1 gm/100 ml, No PDE Inhibitor
  % Leaf Remaining: 30%
[2]; Table 4, agonist 10^-1 gm/100 ml, IBMX 0.1 g/100 ml
  % Leaf Remaining: 55%
[2]; [4]
  % Leaf Remaining: < 5%
[2]; Table 4, agonist 10^-2 gm/100 ml, IBMX 0.1 g/100 ml
  % Leaf Remaining: 42%
[2]; [5]
  % Leaf Remaining: < 5%

## NCC(O)c1cccc(O)c1 (racemic) [(±)-m-octopamine, reference compound]
[1]; [6]
  Vmax (% OCT): 9 ± 1 % OCT
[1]; [3]
  Ka^oct/Ka^(1) ratio (column head is drawing 15): 0.1
[2]; no IBMX
  pesticidal activity: much less pesticidal activity than p-octopamine

## CC(N)C(O)c1ccccc1 (racemic) [(±)-norephedrine, reference compound]
[1]
  Ka^oct/Ka^(1) ratio (column head is drawing 15): < 0.09
[1]; [6]
  Vmax (% OCT): 8 ± 1 % OCT

## COc1cc(C(O)CN)ccc1O (racemic) [(±)-normetanephrine, reference compound]
[1]; [3]
  Ka^oct/Ka^(1) ratio (column head is drawing 15): 0.07

## NCC(O)c1ccccc1O (racemic) [(±)-o-octopamine, reference compound]
[1]; [3]
  Ka^oct/Ka^(1) ratio (column head is drawing 15): 0.05

## CC(N)Cc1ccc(O)cc1 (racemic) [(±)-p-hydroxyamphetamine, reference compound]
[1]
  Ka^oct/Ka^(1) ratio (column head is drawing 15): < 0.05
[1]; [6]
  Vmax (% OCT): 8 ± 3 % OCT

## CC(N)C(O)c1ccc(O)cc1 (racemic) [(±)-α-methyloctopamine, reference compound]
[1]; [6]
  Vmax (% OCT): 44 ± 2 % OCT
[1]; [3]
  Ka^oct/Ka^(1) ratio (column head is drawing 15): 0.05

## CNC(C)C(O)c1ccc(O)cc1 (racemic) [(±)-α-methylsynephrine, reference compound]
[1]; [6]
  Vmax (% OCT): 7 ± 2 % OCT
[1]; [3]
  Ka^oct/Ka^(1) ratio (column head is drawing 15): < 0.01

## NC[C@@H](O)c1ccc(O)cc1 [(+)-p-octopamine, reference compound]
[1]; [6]
  Vmax (% OCT): 81 ± 1 % OCT

## CNC[C@H](O)c1ccc(O)c(O)c1 [(-)-epinephrine, reference compound]
[1]
  Ka^oct/Ka^(1) ratio (column head is drawing 15): 0.20

## NC[C@H](O)c1ccc(O)c(O)c1 [(-)-nonrepinephrine, reference compound]
[1]; [3]
  Ka^oct/Ka^(1) ratio (column head is drawing 15): 0.13

## CNC[C@H](O)c1cccc(O)c1 [(-)-phenylephrine, reference compound]
[1]; [3]
  Ka^oct/Ka^(1) ratio (column head is drawing 15): < 0.2

## Clc1ccc(Cl)c(N=C2NCCN2)c1 [NC 2]
[1]; Table 2, clonidines
  Ka ratio to octopamine: 1.1
[1]; [7]
  Vmax (% OCT): 9 % OCT

## Clc1cc(Cl)c(N=C2NCCN2)cc1Cl [NC 3]
[1]
  octopamine potency ratio: 3.0
[1]; Table 2, clonidines
  Ka ratio to octopamine: 2.8
[1]; [7]
  Vmax (% OCT): 80 % OCT

## Cc1cccc(C)c1N=C1NCCN1 [NC 4]
[1]; Table 2, clonidines
  Ka ratio to octopamine: 0.41
[1]; [7]
  Vmax (% OCT): 80 % OCT

## Brc1cccc(Br)c1N=C1NCCN1 [NC 6]
[1]; Table 2, clonidines
  Ka ratio to octopamine: 2.1
[1]; [7]
  Vmax (% OCT): 35 % OCT

## Clc1ccc(N=C2NCCN2)c(Cl)c1 [NC 8]
[1]
  octopamine potency ratio: 3.7
[1]; Table 2, clonidines
  Ka ratio to octopamine: 3.7
[1]; [7]
  Vmax (% OCT): 47 % OCT

## Cc1ccc(N=C2NCCN2)c(C)c1 [NC 9]
[1]
  octopamine potency ratio: 5.1
[1]; Table 2, clonidines
  Ka ratio to octopamine: 5.1
[1]; [7]
  Vmax (% OCT): 78 % OCT

## c1ccc(N=C2NCCN2)cc1 [NC 10]
[2]; [8]
  % Leaf Remaining: 15%
[2]; [9]
  % Leaf Remaining: 5%
[2]; [10]
  % Leaf Remaining: 13%
[2]; [11]
  % Leaf Remaining: 5%
[2]; [12]
  % Leaf Remaining: 15%
[2]; [13]
  % Leaf Remaining: 5%
[2]; Table 5, agonist 10^-3 gm/100 ml, IBMX 0.1 g/100 ml
  % Leaf Remaining: 12%
[2]; Table 5, agonist 10^-3 gm/100 ml, No PDE Inhibitor
  % Leaf Remaining: 5%
[2]; compound itself, in words
  antifeeding activity: lacked antifeeding activity both in the absence or presence of the PDE inhibitor

## Clc1cc(Cl)c(N=C2NCCN2)c(Cl)c1 [NC 11]
[1]; Table 2, clonidines
  Ka ratio to octopamine: 1.9
[1]; [7]
  Vmax (% OCT): 60 % OCT

## Brc1ccc(N=C2NCCN2)cc1 [NC 12]
[1]; Table 2, clonidines
  Ka ratio to octopamine: 3.0
[1]; [7]
  Vmax (% OCT): 34 % OCT

## Cc1cc(C)c(N=C2NCCN2)c(C)c1 [NC 13]
[1]
  octopamine potency ratio: 4.3
[1]; Table 2, clonidines
  Ka ratio to octopamine: 4.3
[1]; [7]
  Vmax (% OCT): 112 % OCT

## Nc1cc(Cl)c(N=C2NCCN2)c(Cl)c1 [NC 14]
[1]; Table 2, clonidines
  Ka ratio to octopamine: 0.7
[1]; [7]
  Vmax (% OCT): 29 % OCT

## CN(C)c1cc(Cl)c(N=C2NCCN2)c(Cl)c1 [NC 15]
[1]; Table 2, clonidines
  Ka ratio to octopamine: 1.9
[1]; [7]
  Vmax (% OCT): 38 % OCT

## CN(CCCl)c1cc(Cl)c(N=C2NCCN2)c(Cl)c1 [NC 16]
[1]; Table 2, clonidines
  Ka ratio to octopamine: 4.8
[1]; [7]
  Vmax (% OCT): 6 % OCT

## CNCCc1ccc(O)c(O)c1 [Nmethyldopamine, reference compound]
[1]; [3]
  Ka^oct/Ka^(1) ratio (column head is drawing 15): 0.19

## Clc1cccc(Cl)c1N=C1NCCN1 [clonidine, reference compound]
[1]
  Ka ratio to octopamine: 0.95
  octopamine potency ratio: 0.9
[1]; light organ homogenate
  Vmax (% OCT): 35 % OCT
  Vmax, % that of octopamine: 35%
[2]; [8]
  % Leaf Remaining: 63%
[2]; [9]
  % Leaf Remaining: 65%
[2]; [10]
  % Leaf Remaining: 55%
[2]; [11]
  % Leaf Remaining: 20%
[2]; [12]
  % Leaf Remaining: 55%
[2]; [13]
  % Leaf Remaining: 5%
[2]
  effect of addition of IBMX on antifeeding / pesticidal activity: substantial increases in the potency

## NCCc1ccc(O)c(O)c1 [dopamine, reference compound]
[1]; [6]
  Vmax (% OCT): 4 ± 1 % OCT
[1]; [3]
  Ka^oct/Ka^(1) ratio (column head is drawing 15): 0.26

## NCC(O)c1ccc(O)c(Cl)c1 (stereo not drawn) [m-chloro-octopamine]
[1]; [3]
  Ka^oct/Ka^(1) ratio (column head is drawing 15): 0.28

## Nc1ncnc2c1nc(Sc1ccc(Cl)cc1)n2[C@@H]1O[C@@H]2COP(=O)(O)O[C@H]2[C@H]1O [p-Cl-phenylthio cyclic AMP, 8-p-chlorophenylthio-cyclic AMP, reference compound]
[2]; concentration of 1%, absence of IBMX
  antifeeding activity: showed antifeeding activity
[2]
  effect of addition of IBMX on antifeeding / pesticidal activity: increased by addition of IBMX

## NCC(O)c1ccc(F)cc1 (stereo not drawn) [p-fluoro-phenylethanolamine]
[2]; [4]
  % Leaf Remaining: < 5%
[2]; [5]
  % Leaf Remaining: < 5%
[2]; Table 4, agonist 10^-3 gm/100 ml, IBMX 0.1 g/100 ml
  % Leaf Remaining: 50%
[2]; Table 4, agonist 10^-3 gm/100 ml, No PDE Inhibitor
  % Leaf Remaining: < 5%

## COc1ccc(CCN)cc1 [p-methoxyphenylethylamine, reference compound]
[1]; [6]
  Vmax (% OCT): 6 ± 3 % OCT
[1]; [3]
  Ka^oct/Ka^(1) ratio (column head is drawing 15): 0.10

## NCCc1ccc(O)cc1 [tyramine, reference compound]
[1]; [3]
  Ka^oct/Ka^(1) ratio (column head is drawing 15): 0.15

## NCCc1ccccc1 [β-phenylethylamine, reference compound]
[1]
  Ka^oct/Ka^(1) ratio (column head is drawing 15): 0.03
